From patent publication US20200190136A1, “METHODS FOR GENERATING SMALL MOLECULE DEGRADERS AND DIMERIZERS” (DANA-FARBER CANCER INSTITUTE, INC., priority 2017, published 2020)
“Also recorded” adds a separate entry of the source.

Assays:
BRD4BD1 and BRD4BD2 = conditions: Filippakopoulos, Qi et al. 2010; cited from earlier work
[1] = system: BRD2BD1, BRD2BD2, BRD3BD1, BRD3BD2, BRD4BD1, BRD4BD2; experiment: EGFP/mCherry reporter cellular degradation across individual BET bromodomains; assay type: cell-based, human; conditions: for degradation activity across BET bromodomains: individual bromodomains of BRD2, BRD3, BRD4; for selectivity of BRD4 degradation over BRD2 and BRD3: EGFP/mCherry reporter assay
Method: (§1) Stable cell lines expressing eGFP-protein fusion and mCherry reporter were generated using Flip-In 293 system. Plasmid (0.3 μg) and pOG44 (4.7 μg) DNA were preincubated in 100 μL of Opti-MEM I (Gibco, Life Technologies) media containing 0.05 mg/ml Lipofectamine 2000 (Invitrogen) for 20 min and added to Flip-In 293 cells containing 1.9 ml of DMEM media (Gibco, Life Technologies) per well in a 6-well plate format (Falcon, 353046). Cells were propagated after 48 h and transferred into a 10 cm^2 plate (Corning, 430165) in DMEM media containing 50 μg/ml of Hygromycin B (REF 10687010, Invitrogen) as a selection marker. Following 2-3 passage cycle FACS (FACSAria II, BD) was used to enrich for cells expressing eGFP and mCherry.
(§2) Cells were seeded at 30-50% confluency in either 24, 48 or 96 well plates (3524, 3548, 3596 respectively, Costar) a day before compound treatment. Titrated compounds were incubated with cells for 5 h following trypsinisation and resuspention in DMEM media, transferred into 96-well plates (353910, Falcon) and analyzed by flow cytometer (guava easyCyte HT, Millipore). Signal from 5000 cells per well was acquired in singlicate or duplicate and the eGFP and mCherry florescence monitored. Data was analyzed using FlowJo (FlowJo, LCC). […] The eGFP protein abundance relative to mCherry was then quantified as a ten-fold amplified ratio for each individual cell using the formula: 10×eGFP/mCherry. The median of the ratio was then calculated per set, normalized to the median of the DMSO ratio, and is denoted as relative abundance. Standard deviation is calculated from four replicates (n=4) unless described otherwise.

IKZF1Δ-CRBN = target: T1, IKZF1Δ-CRBN (Homo sapiens, UniProt Q13422+Q96SW2, DEL197-239); experiment: TR-FRET CRBN-IKZF1Δ binding assay
T1 construct: made in house; host or cells: Trichoplusia ni High-Five insect cells (baculovirus)
Method: Before TR-FRET measurements were conducted, the reactions were incubated for 15 min at RT. After excitation of terbium fluorescence at 337 nm, emission at 490 nm (terbium) and 520 nm (BODIPY) were recorded with a 70 μs delay over 600 μs to reduce background fluorescence and the reaction was followed over 30 200 second cycles of each data point using a PHERAstar FS microplate reader (BMG Labtech). The TR-FRET signal of each data point was extracted by calculating the 520/490 nm ratio. The heterobifunctional nature of small molecule degraders results in a three-body binding equilibrium complicated by potential cooperativity or avidity effects arising from protein-protein interactions (Douglass, Miller et al. 2013), all of which precludes direct interpretation of the binding data. […] The peak height of TR-FRET dBET dose response data was calculated in GraphPad Prism 7 using Area Under Curve analysis for three independent replicates (n=3) and the mean peak height and standard deviation calculated.
The standard deviation in IKZF1A TR-FRET compound titrations was calculated from three biological replicates (n=3) as an average of 5 technical replicates per well per experiment, or as an average of 5 technical replicates of single experiment for unlabelled protein titrations.

DDB1ΔB-CRBN / BRD4BD1 = experiment: TR-FRET dimerization assay, CRBN with BRD4BD1 wild type and mutants (peak height); assay type: binding, human; conditions: BRD4BD1 Q84 mutated to R (as in BRD2) or K, reference to WT
Method: Before TR-FRET measurements were conducted, the reactions were incubated for 15 min at RT. […] The TR-FRET signal of each data point was extracted by calculating the 520/490 nm ratio. […] The peak height of TR-FRET dBET dose response data was calculated in GraphPad Prism 7 using Area Under Curve analysis for three independent replicates (n=3) and the mean peak height and standard deviation calculated.

BRD2 [2] = target: T2, BRD2 (Homo sapiens, UniProt P25440); experiment: Western blot of BRD2 in HEK293T cells; assay type: cell-based; conditions: immunoblot
T2 construct: endogenous in cells; host or cells: HEK293T
Method: (§3) HEK293T cells were seeded at 90% confluency in 12 well plates (353043, Falcon), left to attach for 1.5 h, followed by the compound treatment for 5 h. Primary and secondary antibodies used included anti-BRD4 at 1:1000 dilution (A301-985A-M, Bethyl Laboratories), anti-BRD2 at 1:2,000 dilution (A302-582A, Bethyl Laboratories), anti-BRD3 at 1:500 dilution (ab56342, Abcam), anti-GAPDH at 1:10,000 dilution (G8795, Sigma), IRDye680 Donkey anti-mouse at 1:10,000 dilution (926-68072, LiCor) and IRDye800 Goat anti-rabbit at 1:10,000 dilution (926-32211, LiCor).

BRD2 [3] = experiment: BRD2 bromodomain EGFP/mCherry reporter cellular degradation assay; assay type: cell-based, human; conditions: BRD2 bromodomain reporter cells
Method: as §1, with “Following 2-3 passage cycle FACS (FACSAria II, BD) was used to enrich for cells expressing eGFP and mCherry.” left out
as §2, with “The median of the ratio was then calculated per set, normalized to the median of the DMSO ratio, and is denoted as relative abundance.” left out

BRD4BD1 = target: T3, BRD4BD1 (Homo sapiens, UniProt O60885); experiment: BRD4BD1-EGFP/mCherry reporter cellular degradation assay (flow cytometry); assay type: cell-based; conditions: BRD4BD1-EGFP reporter cells
T3 construct: expressed in transfected cells
Method: as §1, with “Following 2-3 passage cycle FACS (FACSAria II, BD) was used to enrich for cells expressing eGFP and mCherry.” left out
as §2, with “The median of the ratio was then calculated per set, normalized to the median of the DMSO ratio, and is denoted as relative abundance.” left out

BRD3 [4] = experiment: BRD3 bromodomain EGFP/mCherry reporter cellular degradation assay; assay type: cell-based, human; conditions: BRD3 bromodomain reporter cells
Method: as §1, with “Following 2-3 passage cycle FACS (FACSAria II, BD) was used to enrich for cells expressing eGFP and mCherry.” left out
as §2, with “The median of the ratio was then calculated per set, normalized to the median of the DMSO ratio, and is denoted as relative abundance.” left out

BRD4 = target: T4, BRD4 (Homo sapiens, UniProt O60885); experiment: Western blot of endogenous BRD4 in HEK293T cells; assay type: cell-based; conditions: 5 hours, immunoblot
T4 construct: retains activity on endogenous full length BRD4; endogenous in cells; host or cells: HEK293T
Method: as §3

BRD3 [5] = target: T5, BRD3 (Homo sapiens, UniProt Q15059); experiment: Western blot of BRD3 in HEK293T cells; assay type: cell-based; conditions: immunoblot
T5 construct: endogenous in cells; host or cells: HEK293T
Method: as §3

IKZF1Δ = target: T6, IKZF1Δ (Homo sapiens, UniProt Q13422+Q96SW2, DEL197-239); experiment: IKZF1Δ-EGFP fusion protein cellular degradation assay; assay type: cell-based; conditions: HEK293T cells
T6 construct: expressed in transfected cells
Method: as §1, with “Following 2-3 passage cycle FACS (FACSAria II, BD) was used to enrich for cells expressing eGFP and mCherry.” left out
as §2, with “The median of the ratio was then calculated per set, normalized to the median of the DMSO ratio, and is denoted as relative abundance.” left out

IKZF1, IKZF3 and ZFP91 = experiment: Quantitative proteomics (TMT LC-MS3) in MM.1s cells; assay type: cell-based, human; conditions: 1 μM, five hours
Method: A micro-BCA assay (Pierce) was used to determine the final protein concentration in the cell lysate. […] Proteins were precipitated using methanol/chloroform. In brief, four volumes of methanol were added to the cell lysate, followed by one volume of chloroform, and finally three volumes of water.

T1 sequence (Q96SW2 whole entry, stated change not applied): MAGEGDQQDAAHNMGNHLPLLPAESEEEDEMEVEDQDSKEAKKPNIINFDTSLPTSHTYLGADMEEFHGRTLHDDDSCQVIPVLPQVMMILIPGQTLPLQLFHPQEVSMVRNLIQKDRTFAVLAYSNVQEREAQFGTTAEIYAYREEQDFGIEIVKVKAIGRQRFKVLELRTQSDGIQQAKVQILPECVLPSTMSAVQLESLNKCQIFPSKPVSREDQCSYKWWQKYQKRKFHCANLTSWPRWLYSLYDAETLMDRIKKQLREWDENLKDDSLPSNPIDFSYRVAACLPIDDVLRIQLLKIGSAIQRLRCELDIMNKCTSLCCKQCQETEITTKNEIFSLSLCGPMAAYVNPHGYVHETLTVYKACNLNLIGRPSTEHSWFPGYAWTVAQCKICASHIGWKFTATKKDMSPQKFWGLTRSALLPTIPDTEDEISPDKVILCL
T1 sequence (Q13422 with tags, fused parts or gaps DEL197-239): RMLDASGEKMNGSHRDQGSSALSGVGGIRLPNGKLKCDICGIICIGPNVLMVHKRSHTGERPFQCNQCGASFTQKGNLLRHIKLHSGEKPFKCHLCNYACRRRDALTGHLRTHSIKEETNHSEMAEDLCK
T6 sequence (Q13422 with tags, fused parts or gaps DEL197-239): as above
T6 sequence (Q96SW2 whole entry, stated change not applied, the tested form may be a part): as the sequence (Q96SW2 whole entry, stated change not applied) above
T6 sequence (Q16531 whole entry partner, the tested form may be a part): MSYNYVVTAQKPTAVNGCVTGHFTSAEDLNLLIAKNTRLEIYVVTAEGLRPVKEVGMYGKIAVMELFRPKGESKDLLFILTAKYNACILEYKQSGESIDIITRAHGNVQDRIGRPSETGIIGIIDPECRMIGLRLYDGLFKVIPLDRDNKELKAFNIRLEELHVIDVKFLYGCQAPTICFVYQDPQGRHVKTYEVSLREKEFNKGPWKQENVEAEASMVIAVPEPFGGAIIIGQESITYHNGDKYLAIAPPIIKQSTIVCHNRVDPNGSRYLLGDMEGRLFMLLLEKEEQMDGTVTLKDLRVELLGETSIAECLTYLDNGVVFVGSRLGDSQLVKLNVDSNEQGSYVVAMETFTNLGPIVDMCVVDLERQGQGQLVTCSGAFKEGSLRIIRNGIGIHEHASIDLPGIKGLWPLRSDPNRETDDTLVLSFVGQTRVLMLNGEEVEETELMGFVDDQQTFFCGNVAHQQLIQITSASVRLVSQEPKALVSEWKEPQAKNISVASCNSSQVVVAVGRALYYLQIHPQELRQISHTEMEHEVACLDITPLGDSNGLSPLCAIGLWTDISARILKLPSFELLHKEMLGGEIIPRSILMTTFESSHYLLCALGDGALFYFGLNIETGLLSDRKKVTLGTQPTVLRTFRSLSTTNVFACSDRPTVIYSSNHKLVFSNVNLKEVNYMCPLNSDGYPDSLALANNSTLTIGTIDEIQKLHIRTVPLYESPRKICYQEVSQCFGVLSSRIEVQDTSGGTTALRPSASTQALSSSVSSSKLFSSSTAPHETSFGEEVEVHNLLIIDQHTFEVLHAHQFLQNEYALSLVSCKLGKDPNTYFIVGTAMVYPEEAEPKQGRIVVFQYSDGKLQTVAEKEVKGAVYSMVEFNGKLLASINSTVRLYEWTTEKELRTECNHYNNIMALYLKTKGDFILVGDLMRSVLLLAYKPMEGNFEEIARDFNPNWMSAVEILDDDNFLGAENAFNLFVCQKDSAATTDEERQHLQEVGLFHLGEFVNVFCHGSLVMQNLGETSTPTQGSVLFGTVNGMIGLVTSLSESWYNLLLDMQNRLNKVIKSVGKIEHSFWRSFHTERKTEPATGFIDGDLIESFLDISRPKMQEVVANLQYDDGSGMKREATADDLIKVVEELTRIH
T5 sequence (Q15059 whole entry): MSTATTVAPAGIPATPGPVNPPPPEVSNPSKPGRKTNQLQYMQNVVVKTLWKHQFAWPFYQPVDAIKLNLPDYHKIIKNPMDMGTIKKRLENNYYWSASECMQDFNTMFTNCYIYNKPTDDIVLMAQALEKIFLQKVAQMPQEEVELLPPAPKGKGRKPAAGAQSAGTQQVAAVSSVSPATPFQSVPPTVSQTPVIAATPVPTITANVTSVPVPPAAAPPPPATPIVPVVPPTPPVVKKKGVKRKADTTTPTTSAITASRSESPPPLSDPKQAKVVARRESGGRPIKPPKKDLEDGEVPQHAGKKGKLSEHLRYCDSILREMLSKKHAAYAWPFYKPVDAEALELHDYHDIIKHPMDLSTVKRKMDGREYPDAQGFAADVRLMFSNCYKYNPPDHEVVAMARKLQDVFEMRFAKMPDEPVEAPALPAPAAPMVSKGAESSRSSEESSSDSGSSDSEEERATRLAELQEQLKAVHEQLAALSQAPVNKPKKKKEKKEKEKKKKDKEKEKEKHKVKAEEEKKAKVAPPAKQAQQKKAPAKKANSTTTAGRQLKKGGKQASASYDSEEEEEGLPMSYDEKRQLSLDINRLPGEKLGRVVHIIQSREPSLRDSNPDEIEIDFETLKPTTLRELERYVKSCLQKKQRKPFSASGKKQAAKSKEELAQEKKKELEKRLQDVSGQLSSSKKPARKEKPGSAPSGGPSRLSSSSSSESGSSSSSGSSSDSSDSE
T2 sequence (P25440 whole entry): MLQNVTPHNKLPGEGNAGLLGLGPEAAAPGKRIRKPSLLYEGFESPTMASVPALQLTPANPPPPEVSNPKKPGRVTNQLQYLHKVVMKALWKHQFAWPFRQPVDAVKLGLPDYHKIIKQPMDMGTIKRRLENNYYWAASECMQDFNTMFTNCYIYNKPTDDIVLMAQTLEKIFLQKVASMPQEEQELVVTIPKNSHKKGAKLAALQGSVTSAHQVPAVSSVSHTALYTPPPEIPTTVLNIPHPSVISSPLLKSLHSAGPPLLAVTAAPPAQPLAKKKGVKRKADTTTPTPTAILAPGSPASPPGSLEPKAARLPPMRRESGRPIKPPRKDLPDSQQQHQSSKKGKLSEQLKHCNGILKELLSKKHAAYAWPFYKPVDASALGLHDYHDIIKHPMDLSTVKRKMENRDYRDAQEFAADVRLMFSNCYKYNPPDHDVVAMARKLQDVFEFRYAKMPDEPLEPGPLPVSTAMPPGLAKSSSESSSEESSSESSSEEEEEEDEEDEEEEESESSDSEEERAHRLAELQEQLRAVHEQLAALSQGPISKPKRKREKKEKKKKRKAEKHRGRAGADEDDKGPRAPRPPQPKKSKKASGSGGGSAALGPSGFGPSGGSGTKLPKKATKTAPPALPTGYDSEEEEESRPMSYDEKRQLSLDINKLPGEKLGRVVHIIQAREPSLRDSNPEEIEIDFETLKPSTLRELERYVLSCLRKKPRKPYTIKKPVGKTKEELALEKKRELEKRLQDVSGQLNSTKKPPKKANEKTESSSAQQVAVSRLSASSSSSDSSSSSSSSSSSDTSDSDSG

Cc1sc2c(c1C)C(c1ccc(Cl)cc1)=N[C@@H](CC(=O)OC(C)(C)C)c1nnc(C)n1-2 [JQ1]
relative affinity for BRD4BD1 and BRD4BD2 (BRD4BD1 and BRD4BD2): equal affinities

Cc1ncsc1-c1ccc(CNC(=O)[C@@H]2C[C@@H](O)CN2C(=O)[C@@H](NC(=O)COCCOCCOCCNC(=O)C[C@@H]2N=C(c3ccc(Cl)cc3)c3c(sc(C)c3C)-n3c(C)nnc32)C(C)(C)C)cc1 [MZ1, reference compound]
degradation activity across BET bromodomains [1]: activity on most bromodomains

Cc1sc2c(c1C)C(c1ccc(Cl)cc1)=N[C@@H](CC(=O)NCCOc1cccc3c1C(=O)N(C1CCC(=O)NC1=O)C3=O)c1nnc(C)n1-2 (stereo partly shown) [ZXH-2-42]
IKZF1-CRBN complex formation induced by compound (IKZF1Δ-CRBN): greatly reduced compared to their nitrogen analogs

COC(=O)C[C@@H]1N=C(c2ccc(Cl)cc2)c2c(sc(C(=O)NCCCCCCCCOc3cccc4c3C(=O)N(C3CCC(=O)NC3=O)C4=O)c2C)-n2c(C)nnc21 (stereo partly shown) [ZXH-2-43]
IKZF1-CRBN complex formation induced by compound (IKZF1Δ-CRBN): greatly reduced compared to their nitrogen analogs

COC(=O)C[C@@H]1N=C(c2ccc(Cl)cc2)c2c(sc(C(=O)NCCCCCCCCOc3ccc4c(c3)C(=O)N(C3CCC(=O)NC3=O)C4=O)c2C)-n2c(C)nnc21 (stereo partly shown) [ZXH-2-45]
IKZF1-CRBN complex formation induced by compound (IKZF1Δ-CRBN): greatly reduced compared to their nitrogen analogs

COC(=O)C[C@@H]1N=C(c2ccc(Cl)cc2)c2c(sc(C(=O)NCCCCNc3cccc4c3C(=O)N(C3CCC(=O)NC3=O)C4=O)c2C)-n2c(C)nnc21 (stereo partly shown) [ZXH-2-184]
selectivity of BRD4 degradation over BRD2 and BRD3 [1]: selective degradation of BRD4; also recorded: selectively targets BRD4 for degradation and spares BRD2 and BRD3

COC(=O)C[C@@H]1N=C(c2ccc(Cl)cc2)c2c(sc(C(=O)NCCCCCNc3cccc4c3C(=O)N(C3CCC(=O)NC3=O)C4=O)c2C)-n2c(C)nnc21 (stereo partly shown) [ZXH-03-26]
complex formation with CRBN (TR-FRET peak height) (DDB1ΔB-CRBN / BRD4BD1): decreases complex formation with CRBN | degradation of BRD2 (BRD2 [2]): inactive | concentrations at which degradation of BRD2 is spared (BRD2 [3]): > 10 µM | degradation activity on BRD4BD1 (BRD4BD1): active on BRD4BD1 | DC50 (BRD4BD1; 5 h, read-out: DC50/5h (half-maximal degradation after 5 hours of treatment)): ~5 nM | concentrations at which degradation of BRD3 is spared (BRD3 [4]): > 10 µM | degradation of endogenous BRD4 (BRD4): degrades endogenous BRD4 with comparable efficacy compared to the best pan-BET degrader dBET6 | selectivity of BRD4 degradation over BRD2 and BRD3 [1]: selectively targets BRD4 for degradation and spares BRD2 and BRD3 | degradation activity across BET bromodomains [1]: activity exclusively on the first bromodomain of BRD4 | degradation of BRD3 (BRD3 [5]): inactive

Cc1sc2c(c1C)C(c1ccc(Cl)cc1)=N[C@@H](CC(=O)NCCCCCCCCNC(=O)COc1cccc3c1C(=O)N(C1CCC(=O)NC1=O)C3=O)c1nnc(C)n1-2 (stereo partly shown) [dBET6, reference compound]
cellular IKZF1 degradation (IKZF1Δ): relatively ineffective at promoting IKZF1 degradation | IKZF1-CRBN complex formation induced by compound (IKZF1Δ-CRBN): do not induce IKZF1-CRBN complex formation

COC(=O)C[C@@H]1N=C(c2ccc(Cl)cc2)c2c(sc(C(=O)NCCCCCCCCNC(=O)COc3cccc4c3C(=O)N(C3CCC(=O)NC3=O)C4=O)c2C)-n2c(C)nnc21 (stereo partly shown) [dBET23]
co-degradation of CRBN-lenalidomide neo-substrates IKZF1, IKZF3 and ZFP91 (IKZF1, IKZF3 and ZFP91): not dBET23 exhibits pronounced co-degradation
